Data set [1] has as its system serum TNF-α, IL-6, Il-1α and IFN-γ. As to the kind of experiment: Serum cytokine profile after FUS1-nanoparticle with or without naproxen (ELISA). The class given is in vivo, C3H mice. The note with it: naproxen 15 mg/kg orally pretreatment. How it is done: (§1) Cytokine profiles, Organ toxicity and Signalling molecules in C3H mice. To determine the cytokine profile, organ toxicity, signaling molecules responsible for inflammation, experiments were performed using immunocompetent female C3H mice. […] The amount of FUS1 plasmid injected was 100 μg. Serum and organ cytokine levels were determined by ELISA for murine TNF-α and murine Il-6. At indicated times after injection, blood was obtained via aspiration after right heart puncture. The blood was allowed to stand for 4 hours at 4° C. and then was centrifuged twice at 15,000 g for 10 minutes at 4° C. The supernatants (serum) were kept at −80° C. until used. Cytokine concentrations were quantified using specific ELISA kits (R&D systems) according to manufacturer's instructions. Organs were collected at 2, 4, and 15 h and were snap-frozen in liquid nitrogen and stored at […] until time of ELISA and Western blot analysis. At the time of ELISA, organs were slowly thawed on ice. The lung, liver and spleen was homogenized in 750 μl PBS containing a cocktail of protease inhibitors using a tissue homogenizer. The cytoplasmic fraction was isolated as the supernatant fraction following centrifugation at 15,000 g for 20 min at 4° C. The supernatant was used for the determination of TNF-α and IL-6 were quantitated by ELISA kits purchased from R&D Sytems and Biosource.fraction.

Data set [2] deals with mouse TNF-α. Conditions: naproxen 15 mg/Kg orally 3 h prior to FUS1-nanoparticles 100 μg DNA i.v.
Description: In vivo experiments. To determine the effect of intravenous administration of FUS1-nanoparticles on inflammation and the potential use of inhibitors, in vivo experiments were conducted in immunocompetent female C3H mice. Mice were divided into three groups (n=5/group). […] Group 3 received intravenous injection of FUS1-nanoparticles only. The amount of plasmid DNA injected was 100 μg. […] At 2 h, 4 h, 6 h and 15 h after treatment with FUS1-nanoparticles, animals were euthanized and blood and organs (lung, liver, spleen) collected. Blood samples were analyzed for mouse TNF-α by ELISA (R&D Systems, MI). Tissue samples were analyzed for expression of inflammation-associated signaling molecules by western blotting (Ito et al., 2003).
In data set [3] the test system is lung tumor cells. Conditions: luc-nanoparticles in the presence of naproxen.
The test system of data set [4] is C3H mice.
Data set [5] relates to p38MAPK, pJNK, p44/42MAPK, pATF-2, pc-Jun, COX-2 in MRC-9 fibroblast cells. As to the kind of experiment: Inflammation-associated signaling molecules in MRC-9 cells transfected with FUS1-nanoparticles (western blot). The format is cell-based, Human. The note with it: naproxen 0.5 mM prior to FUS1-nanoparticles. How it is done: In vitro experiments. To determine the effect of FUS1-nanoparticles on the activation of signaling molecules associated with inflammation, MRC-9 fibroblast cells were seeded in six-well plates (5×10^5 cells/well) and incubated overnight at 37° C. and 5% CO2. […] Two-three hours after treatment, cells were transfected with FUS1-nanoparticles (2.5 μg DNA) in 0.2% serum medium. Cells were harvested at different time-points (2 h, 4 h, 15 h) after transfection, washed, and cell lysates prepared as previously described (Ramesh et al., 2001a). Untransfected cells treated with PBS served as control in these experiments. Cell lysates were subjected to western blotting analysis and probed with various antibodies as previously described (Ramesh et al., 2001b; Ito et al., 2003). In all the experiments, β-actin was detected using anti-β-actin antibody (Sigma Chemicals, St. Louis, Mo.) as a measure of internal loading control.

Data set [6] has as its system p38MAPK, pJNK, p44/42MAPK, pATF2, pc-JUN, COX-2 in lung tissues. Description: Inflammation-associated signaling molecules in lung tissues after FUS1-nanoparticles (western blot). The class given is in vivo, C3H mice. Conditions: naproxen prior to FUS1-nanoparticles.
Data set [7] deals with TNF-α, IL-6 in lungs, liver and spleen. As to the kind of experiment: Organ cytokine levels (lungs, liver, spleen) after FUS1-nanoparticle with or without naproxen (ELISA). The format is in vivo, C3H mice. The note with it: naproxen 15 mg/kg orally pretreatment. As for the experimental part: as §1
Data set [8] relates to TNF-α, IL-6 and PGE2 production in RAW 264.7 cells. Description: Inflammatory cytokines production assay in RAW 264.7 macrophage cells. The note with it: RAW 264.7, naproxen 0.5 mM before FUS1-nanoparticle. The format is cell-based, Mouse. As for the experimental part: The following day, tissue culture medium was replaced with fresh 0.2% medium and incubated overnight at 37° C. and 5% CO2. […] Assay was performed according to manufacturer's protocol.

Data set [9] has as its system C3H mice. The format is in vivo. The note with it: for protection: alive on day 14. How it is done:
In vivo treatment of immunocompetent animals by intravenous injection of DOTAP:Cholesterol-FUS1 complex. Female C3H mice were divided into 3 groups (n=5/group). […] Complexes were injected intravenously via tail vein in a total volume of 200 μl. Animals were monitored initially at 1, 2, 6, 24, 48 hr and later every day until day 14. Animals that appeared morbid or moribund were euthanized by CO2 inhalation and various organs (lung, liver, kidneys, spleen, heart) were collected in buffered formalin and submitted for histopathological examination. Organs were also collected from animals that were dead, and these were submitted for histopathological analyses.

The subject of data set [10] is luciferase expression in RAW 264.7 cells. The note with it: RAW 264.7, 0.5 mM naproxen pretreatment.
Description: To determine the effect of inhibitors on transgene expression, cells were transfected with a marker gene, luciferase (luc), complexed with nanoparticle. All other experimental conditions were the same as described above. […] Luciferase expression was expressed as relative light units per mg of protein (RLU/mg). Assays were performed in triplicates. Experiments were performed two times and the results represented as the average of two separate experiments.
The subject of data set [11] is NFκB and STAT3 DNA binding. Description: Electrophoretic mobility shift assay of lung nuclear extracts for NFκB and STAT3. The class given is in vivo, C3H mice. The note with it: in the presence of naproxen.
Description: Electrophoretic mobility shift assay. […] Santa Cruz Biotechnology, Santa Cruz, Calif.) and NF-κB consensus oligonucleotide […] These probes were end-labelled with [γ-^32P]ATP(3000 Ci/mmol at 10 mCi/ml; Amersham Biosciences, Sunnyvale, Calif.). DNA binding reactions were performed at room temperature in a 25-μl reaction mixture containing 6-μl of nuclear extract and 5 μl of 5× binding buffer (20% (w/v) Ficoll, 50 mM HEPES (pH 7.9), 5 mM EDTA, 5 mM DTT). […] Samples were electrophoresed through 5.5% polyacrylamide gels in 0.5×TBE at 160 V for 3 h, dried under vacuum, and exposed to X-ray film after overnight expose with hyperfilm at -80° C. The gel was then dried and subjected to autoradiography. […] The minced tissue was homogenized using a Dounce homogenizer and centrifuged at 14,000 rpm at 4° C. for 10 min. […] The supernatant (nuclear extract) was collected and stored at -80° C. until use. The protein concentrationm was measured by the method of Bradford with BSA as the standard. […] Briefly, Double-stranded oligonucleotides consensus NFκB (Promega) were end-labelled with [γ-^32P]-ATP using T4 polynucleotide kinase. […] The bands were visualized by autoradiography.
For data set [12] the following is noted: 15 mg/kg orally. As for the experimental part: At indicated times after injection, blood and organ was collected at different time points. TNF-α, IL-6, IL-1a and IFN-γ levels in serum (C) and TNF-α, IL-6 (D) in organs were determined using specific immunoassay kit. Data represent means±SD.
Animals were euthanized at 2, 4, 6, and 15 hours after treatment, and blood was collected. Blood samples were stored at −80° C. until all samples were collected. They were then submitted to the Drug Analysis Core Facility at M.D. Anderson Cancer Center.

The subject of data set [13] is luciferase expression. Description: Luciferase transgene expression in cells transfected with luc-nanoparticles. The class given is cell-based, Human. The note with it: naproxen prior to luc-nanoparticles; 2 h, 4 h, 15 h.
Description: To determine the effect of inhibitors on transgene expression, cells were transfected with a marker gene, luciferase (luc), complexed with DOTAP:Chol. nanoparticles (luc-nanopartilces). All other experimental conditions were the same as described above. Luciferase expression was determined using the luciferase assay kit (Promega, Madison, Wis.) as previously described (Ramesh et al., 2001b). Luciferase expression was expressed as relative light units per mg of protein (RLU/mg). Assays were performed in triplicates. Experiments were performed two times and the results represented as the average of two separate experiments.
Data set [14] concerns proinflammatory cytokines (TNF, IL-1, IL-6, IFN-γ). The format is in vivo, C3H mice. How it is done: In vivo treatment of immunocompetent animals by intravenous injection of DOTAP:Cholesterol-FUS1 complex. Female C3H mice were divided into 2 groups (n=15/group). […] Complexes were injected intravenously via the tail vein using a total volume of 200 μl. […] Blood from animals in all groups were collected at 2, 4, 6, and 15 h after injection of liposome-DNA complex, and analyzed for proinflammatory cytokines (TNF, IL-1, IL-6, IFN-γ) by ELISA (R&D Systems).

“Also recorded” adds a separate entry of the source. Read-outs that look alike come from different tables or passages of the source.

As for `COc1ccc2cc([C@H](C)C(=O)O)ccc2c1` [Naproxen, naproxen], in data set [1], the “serum TNF-α, IL-6, Il-1α and IFN-γ levels induced by FUS1-nanoparticle” value is reported as “significantly inhibited”. In data set [2], the “TNF-α expression levels in blood at 2 h” value was found to be 411 pg/mL. Also, in [3], the transgene expression result is “Enhanced transgene expression”. In data set [4] (naproxen 5 mg/kg orally 2 to 3 h before FUS1-nanoparticle (100 μg FUS1)), this molecule had a percentage of survival of 50%. This molecule also displayed a percentage of survival in [4] (naproxen 15 mg/kg orally 2 to 3 h before FUS1-nanoparticle (100 μg FUS1)) of 100%. In addition, in data set [5], the “expression of downstream substrates pATF-2, pc-Jun and COX-2” value was “decreased expression”; the “expression of p38MAPK, pJNK and p44/42MAPK” value is “significant inhibition”. Moreover, the “activation of signaling molecules in lung” value in [6] is “markedly suppressed”. Moreover, the “TNF-α, IL-6 levels in lungs, liver and spleen” value in data set [7] is “significantly inhibited”. Also, the “production of TNF-α, IL-6 and PGE2” value in [8] is “suppressed”. The same molecule yielded a protection in data set [9] (naproxen 5 mg/kg orally 2 hour prior to complex (100 μg DNA) i.v.) of 60%. For the same molecule, the protection in data set [9] (naproxen 15 mg/kg orally 2 hour prior to complex (100 μg DNA) i.v.) is 100%. The “Diagnosis (histopathology)” value in data set [9] (naproxen before complex, 15 hr) is “almost completely prevented all the inflammatory features except moderate lymphoid atrophy spleen”. For the same molecule, the “transgene (luciferase) expression” value in [10] was “did not inhibit transgene (luciferase) expression but rather slightly enhanced the transgene expression over time”. The “activation of NFκB and STAT3 in lung” value in [11] was “suppressed”. In data set [12], the “maximum levels of naproxen in the blood” value is on record as 3.5 μg/200 μl of blood and the “time by which naproxen reached baseline levels” value was ≤ 15 h. For the same molecule, in [13], the “luciferase activity (RLU/mg protein), naproxen treated vs untreated” value was “greatly increased; also recorded: slight increase in luciferase activity”. In addition, the “reduction in all of the cytokine levels” value in data set [14] (naproxen 15 mg/kg 2 hour before DOTAP:Chol-FUS1 complex (100 μg DNA) i.v., serum) was determined as 50%. In [14] (naproxen 15 mg/kg before complex), the “proinflammatory cytokine production, effect of naproxen” value is on record as “significant suppression of proinflammatory cytokine production”.
